From patent US9169254B2, “Spiroimidazolone derivative” (Chugai Seiyaku Kabushiki Kaisha, priority 2009, dated 2015)

These compounds were tested against T1, human PTH1 receptor (Homo sapiens, UniProt Q03431) (assay: In vitro cAMP signal activity in HKRK-B7 cells (LLC-PK1 cells overexpressing the human PTH1 receptor)). Settings: HKRK-B7 cells; compound at 1×10^−3 M; cAMP produced as percentage of that produced by hPTH(1-34) at 100 nM.
T1 sequence (Q03431 27-593): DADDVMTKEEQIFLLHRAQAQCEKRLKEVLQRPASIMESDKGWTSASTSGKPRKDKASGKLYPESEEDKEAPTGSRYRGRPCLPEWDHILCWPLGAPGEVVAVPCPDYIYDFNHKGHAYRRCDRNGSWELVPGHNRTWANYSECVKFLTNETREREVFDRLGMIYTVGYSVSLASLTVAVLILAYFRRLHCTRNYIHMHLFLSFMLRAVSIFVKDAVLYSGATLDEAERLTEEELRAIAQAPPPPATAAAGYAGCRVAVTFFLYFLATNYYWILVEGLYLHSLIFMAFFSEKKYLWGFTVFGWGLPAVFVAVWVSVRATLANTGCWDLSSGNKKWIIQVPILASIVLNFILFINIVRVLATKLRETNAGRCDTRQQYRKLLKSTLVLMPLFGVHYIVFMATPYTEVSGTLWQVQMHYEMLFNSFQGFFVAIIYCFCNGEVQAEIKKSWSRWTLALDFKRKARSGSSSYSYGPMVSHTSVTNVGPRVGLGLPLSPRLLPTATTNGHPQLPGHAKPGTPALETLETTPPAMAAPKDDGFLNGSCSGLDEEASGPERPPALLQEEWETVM
Assay type: cell-based

SMILES	cAMP production activity (%)
CC(C)=C1CCC(C2=NC3(CCN(S(=O)(=O)CCc4c(C)cc(N(C)C(N)=O)cc4C)CC3)C(=O)N2)CC1 (stereo not shown) [Compound 1310, 1-(4-{2-[2-(4-isopropylidene-cyclohexyl)-4-oxo-1,3,8-triaza-spiro[4.5]dec-1-ene-8-sulfonyl]-ethyl}-3,5-dimethyl-phenyl)-1-methyl-urea]	104%
O=C1NC(C2CCC(CCC(F)(F)F)CC2)=NC12CCN(S(=O)(=O)/C=C/c1cccc3c1ccn3CCOC[C@@H](O)CO)CC2 (stereo partly drawn) [Compound 704, 8-((E)-2-{1-[2-((S)-2,3-Dihydroxy-propoxy)-ethyl]-1H-indol-4-yl}-ethenesulfonyl)-2-[4-(3,3,3-trifluoro-propyl)-cyclohexyl]-1,3,8-triaza-spiro[4.5]dec-1-en-4-one]	68%
Cc1cc(C(=O)N(C)C)ccc1CCS(=O)(=O)N1CCC2(CC1)N=C(c1cccc(COC(C)C)c1)NC2=O [Compound 130, 4-{2-[2-(3-isopropoxymethyl-phenyl)-4-oxo-1,3,8-triaza-spiro[4.5]dec-1-ene-8-sulfonyl]-ethyl}-3,N,N-trimethyl-benzamide]	65%
Cc1cc(N2C(=O)CC[C@@H]2CO)ccc1/C=C/S(=O)(=O)N1CCC2(CC1)N=C(c1ccc(F)c(C(F)(F)F)c1)NC2=O [Compound 620, 2-(4-fluoro-3-trifluoromethyl-phenyl)-8-{(E)-2-[4-((R)-2-hydroxymethyl-5-oxo-pyrrolidin-1-yl)-2-methyl-phenyl]-ethenesulfonyl}-1,3,8-triaza-spiro[4.5]dec-1-en-4-one]	112%
Cc1cc(C(=O)N(C)C)ccc1CCS(=O)(=O)N1CCC2(CC1)N=C(Cc1ccccc1)NC2=O [Compound 83, 4-[2-(2-benzyl-4-oxo-1,3,8-triaza-spiro[4.5]dec-1-ene-8-sulfonyl)-ethyl]-3,N,N-trimethyl-benzamide]	41%
CC(=O)Nc1ccc(CCS(=O)(=O)N2CCC3(CC2)N=C(C2CCC(/C=C/CF)CC2)NC3=O)c(C)c1 (stereo not shown) [Compound 1063, N-[4-(2-{2-[4-((E)-3-fluoro-propenyl)-cyclohexyl]-4-oxo-1,3,8-triaza-spiro[4.5]dec-1-ene-8-sulfonyl}-ethyl)-3-methyl-phenyl]-acetamide]	72%
CCCCCCCCCC1=NC2(CCN(S(=O)(=O)/C=C/c3ccc(N4C(=O)COCC4=O)cc3C)CC2)C(=O)N1 [Compound 538, 4-{3-methyl-4-[(E)-2-(2-nonyl-4-oxo-1,3,8-triaza-spiro[4.5]dec-1-ene-8-sulfonyl)-vinyl]-phenyl}-morpholine-3,5-dione]	133%
COCCN(C(C)=O)c1cc(C)c(/C=C/S(=O)(=O)N2CCC3(CC2)N=C(C2CCC(CCC(F)(F)F)CC2)NC3=O)c(C)c1 (stereo not shown) [Compound 543, N-[3,5-dimethyl-4-((E)-2-{4-oxo-2-[4-(3,3,3-trifluoro-propyl)-cyclohexyl]-1,3,8-triaza-spiro[4.5]dec-1-ene-8-sulfonyl}-vinyl)-phenyl]-N-(2-methoxy-ethyl)-acetamide]	76%
Cc1cc(N(C)C(N)=O)cc(C)c1CCS(=O)(=O)N1CCC2(CC1)N=C(C1CCC(=C(F)F)CC1)NC2=O (stereo not shown) [Compound 1059, 1-(4-{2-[2-(4-Difluoromethylene-cyclohexyl)-4-oxo-1,3,8-triaza-spiro[4.5]dec-1-ene-8-sulfonyl]-ethyl}-3,5-dimethyl-phenyl)-1-methyl-urea]	116%
Cc1cc(N2C(=O)CN(C)C2=O)ccc1CCS(=O)(=O)N1CCC2(CC1)N=C(C1CCC(C)CC1)NC2=O (stereo not shown) [Compound 862, 1-methyl-3-(3-methyl-4-{2-[2-(4-methyl-cyclohexyl)-4-oxo-1,3,8-triaza-spiro[4.5]dec-1-ene-8-sulfonyl]-ethyl}-phenyl)-imidazolidine-2,4-dione]	55%
